Source: paper PMC4389225, “Triaminopyrimidine is a fast-killing and long-acting antimalarial clinical candidate” (Nature Communications, 2015)

Assays:
Cpd 4 Unpublished Target = assay: [3H]-hypoxanthine incorporation assay, Cpd 4 Unpublished Target resistant; format: cell-based; conditions: Plasmodium falciparum
Description: (§1) Supplementary Table 3: Compound 9 and 12 retain their activity against Pf strains harbouring mutations to novel antimalarial agents in clinical development. Compound 9 and 12 were tested for their antiplasmodial activity against a panel of Pf strains known to harbour mutations conferring resistance to novel agents under clinical development. Parasite growth inhibition is measured using the [3H]-hypoxanthine incorporation assay. IC50s are established for each strain (n ≥2) and compared to the IC50 of Dd2 (standard pan-resistant […]

Caco2 permeability = conditions: human, Caco-2
Dd2-6R F4 D4 = assay: SYBR green growth assay, Dd2-6R F4 D4; conditions: Plasmodium falciparum
Description: (§2) Assays were carried out in 384-well format with three technical replicates within an assay day and biological replicates carried out on three different assay days to assign a final EC50.
(§3) The drug was then washed off and the parasites were allowed to recover in normal growth media.

Dd2-6R F2 B5 = assay: SYBR green growth assay, Dd2-6R F2 B5
Description: as §2, §3

Dd2 bc-1 ELQ-300 = assay: [3H]-hypoxanthine incorporation assay, Dd2 bc-1 ELQ-300 resistant; format: cell-based, Plasmodium falciparum; conditions: Plasmodium falciparum, DD2
Description: as §1

Pf = assay: Predicted human efficacy (parasite load reduction); design: species or system Plasmodium falciparum
Description: The predicted human exposure after a single dose of 260 mg is likely to sustain the maximum kill rate observed in the Pf/SCID model for 4–6 days to achieve >3-log reduction in parasitemia (Supplementary Note 6, Supplementary Figs 12 and 13, and Supplementary Table 12). A patient with clinical symptoms of uncomplicated malaria may have 1–2% parasitemia in blood, which is equivalent to 11–12 log parasites in total, assuming 13 log erythrocytes in human blood. At a dose of 260 mg, compound 12 is predicted to maintain a constant kill rate over two life cycles (96 h) of the parasite to yield a 3 to 4-log reduction in the total parasite load. Therefore, a single-dose treatment with~500 mg might result in >8-log reduction in the parasite load. In a combination-based malaria therapy that is clinically practiced, an additive or synergistic effect of the partner drug with compound 12 is predicted to cure patients following a single-dose treatment.
Prediction of human PK profile. The predicted human CL and Vss estimates could be used for predicting human PK with a one compartment distribution. However, rat and dog IVPK profiles indicated a two compartment distribution. Parameters for the two compartment distribution in human were predicted by Wajima transformation8 of rat and dog IVPK […]
CLd, Vt and Vc estimates, assuming similar Ka (0.3/h) and F (0.7) as observed in rats (supplementary Fig. 12 ).
Predicted human PK parameters are shown in supplementary Table 12. Human CL estimates predicted by the FCIM method and IVIVE (3.8 ml/min/kg) were identical. The […]
Human efficacy was predicted after treatment of 70 kg adult with a single 260 mg dose, assuming 2% parasitemia at the onset of treatment and assuming one compartment distribution of 12 in humans (supplementary Fig. 13). Similar efficacy was predicted if 12 was distributed in two compartments.

[1] = Plasma protein binding, dog
[2] = Plasma protein binding, guinea pig
Hepatocyte Clint, human = format: in vitro ADME; conditions: hepatocytes
From the text: Supplementary Note 5: Prediction of human clearance for compound 12 by IVIVE.
Human clearance (CL) was predicted by in vitro-in vivo extrapolation (IVIVE) from the in vitro Clint in human hepatocytes6. In vitro Clint was scaled to in vivo Clint as follows:
Clint in vivo = Clint in vitro * scaling factors * fublood/fuinc
The liver weights used for scaling were 40, 32 and 24 g/kg body weight in rat, dog and human respectively. Hepatocellularity used for scaling was 163, 169 and 120 (X 106) cells/g liver in rat, dog and human respectively. Free fraction in blood was calculated as fuplasma /Blood:Plasma (BP) ratio. BP ratio and free fraction in the hepatocyte incubation mix, fuinc, were measured in vitro. Slope and intercept from the linear regression analysis of IVIVC for a large number of AstraZeneca compounds was applied for final correction in the scaled in vivo Clint. A well stirred model was used for CL prediction.
Where Qh is the liver blood flow. The values of Qh in rat, dog and human are 72, 55 and 20 mL.min-1kg-1 in rat, dog and human, respectively. In vitro parameters, observed in vivo CL and predicted CL are shown in supplementary Table 10. […]
(also on this page, place not known: in vivo in vivo CLintQ CLintQCL Predicted predicted predicted h h + ×=)
(1 picture or pasted object on this page, not shown here)

[3] = Blood-plasma ratio, mouse; format: in vitro ADME

For `Cc1nc(Nc2ncc(N3CCN(C)[C@H](C)C3)c(Nc3cc(C)n(C)n3)n2)cc(C2CC2)c1F` [compound 12, (R)-N2-(4-cyclopropyl-5-fluoro-6-methylpyridin-2-yl)-N4-(1,5-dimethyl-1H-pyrazol-3-yl)-5-(3,4-dimethylpiperazin-1-yl)pyrimidine-2,4-diamine], the IC50 (Cpd 4 Unpublished Target) was 8.2 nM, the Papp A→B (Caco2 permeability) was 25 ×10⁻⁶ cm/s and the IC50 (Dd2-6R F4 D4) was 81.6 nM. For the same molecule, the IC50 (Dd2-6R F2 B5; Plasmodium falciparum, DD2) was 81 ± 17.9 nM, the “increase in IC50 compared with the parental Dd2 line” value (Dd2-6R F2 B5; compound 6-resistant Dd2-6R clones (five clones)) was 3-6 fold and the IC50 (Dd2 bc-1 ELQ-300) was 8.2 nM. For the same molecule, the “predicted reduction in the total parasite load” value (Pf; 260 mg, two life cycles (96 h)) was 3 to 4 log, the “predicted reduction in parasitemia” value (Pf; single dose of 260 mg, 4–6 days) was greater than 3 log and the “predicted reduction in the parasite load” value (Pf; single dose ~500 mg) was greater than 8 log. The “Plasma protein binding (% free)” value ([1]; Dog) was 3.8 % free, the fraction unbound ([1]; dog, plasma) was 0.038 and the “Plasma protein binding (% free)” value ([2]; Guinea pig) was 5.5 % free. The fraction unbound ([2]; guinea pig, plasma) was 0.055, the hepatocyte CLint (Hepatocyte Clint, human) was 3.1 µL/min/1e6 cells and the “B:P ratio” value [3] was 1.2.
